In US20230067910A1, “NOVEL COMPOUNDS FOR THE DIAGNOSIS, TREATMENT AND PREVENTION OF DISEASES ASSOCIATED WITH THE AGGREGATION OF ALPHA-SYNUCLEIN” (MODAG GMBH, priority 2019, published 2023):

Tests used:
[1] = target: T1, aggregated alpha-synuclein (Homo sapiens, UniProt P37840); experiment: Modified saturation binding assay, protocol 2b, alpha-synuclein fibrils; conditions: saturation assay protocol 2b, sonicated fibrils 15 nM/well
T1 construct: made in house; host or cells: E. coli
Description: Alpha-synuclein and tau46 were purified from E. coli according to established protocols (Nuscher B, et al., J. Biol. Chem., 2004; 279(21):21966-75), Aβ1-42 was obtained from rPeptide, Watkinsville, Ga., USA. Fibrils were prepared by aggregation of recombinant protein via constant agitation. In detail, 70 μM of alpha-synuclein mixed with 100 mM NaCl in 50 mM Tris, pH 7.0+0.02% NaN3 were incubated at 1,400 rpm, 37° C. for 96 h. 10 μM of tau46 were incubated with 0.03 mg/ml heparin in 50 mM Tris, pH=7.0 at 1,000 rpm, 37° C. for 72 h. […]
For saturation binding assays, a fixed concentration of sonicated human recombinant αSYN (15 nM/well) or tau46 (250 nM/well) or Aβ1-42 (1 μM/well) fibrils diluted in phosphate buffered saline (PBS) were incubated in low binding plates (96 well micro test plate, Ratiolab GmbH, Dreieich, Germany) with [H]-compound 1 or [PH]-compound 2 at increasing concentrations (from 0.05 nM to 12 nM/24 nM) in 30 mM Tris HCl, 10% ethanol, 0.05% Tween20, pH 7.4 (hereafter referred to as incubation buffer) in a total volume of 200 μL/well. Non-specific binding of the radiotracer was determined by coincubation with 400 nM non-labeled compound 1 or compound 2. The optimal fibril concentrations were determined using a concentration determination assay. […]

[2] = In vivo biodistribution of [11C]-labeled compounds, small animal PET; conditions: [11C]-labeled compound, intravenous tail vein, mice; for half-life: mouse, brain, read-out: Clearance half-life (brain)
Description: [^11C]-labeled compound 1 and compound 2, respectively, were injected intravenously in the tail vein of mice. Mice were then imaged in a small animal PET instrument. For both compounds, a good blood-brain-barrier penetration with SUV values >1.5 was observed.

aggregated tau46 = target: T2, aggregated tau46 (Homo sapiens, UniProt P10636); experiment: Saturation binding assay, protocol 2a, tau46 fibrils; conditions: saturation assay protocol 2a, [3H]-labeled compound
T2 construct: made in house; host or cells: E. coli
Description: Alpha-synuclein and tau46 were purified from E. coli according to established protocols (Nuscher B, et al., J. Biol. Chem., 2004; 279(21):21966-75), Aβ1-42 was obtained from rPeptide, Watkinsville, Ga., USA. Fibrils were prepared by aggregation of recombinant protein via constant agitation. In detail, 70 μM of alpha-synuclein mixed with 100 mM NaCl in 50 mM Tris, pH 7.0+0.02% NaN3 were incubated at 1,400 rpm, 37° C. for 96 h. 10 μM of tau46 were incubated with 0.03 mg/ml heparin in 50 mM Tris, pH=7.0 at 1,000 rpm, 37° C. for 72 h. Aβ1-42 was solved in 20 mM NaPi, pH=8.0+0.2 mM EDTA+0.02% NaN3 (Deeg A A, et al., Biochim. Biophys. Acta, 2015; 1850(9): 1884-90; Goedert M, et al. Nature, 1996; 383(6600): 550-3).
Sonicated αSYN (0.04 μM) or tau46 (0.4 μM) or Aβ1-42 (6 μM) fibrils diluted in PBS were incubated with decreasing concentrations of [^3H]-labeled compound (48 nM or 24 nM-[…]) in 50 mM Tris-base, 10% ethanol, 0.05% Tween20, pH 7.4. […]
Assay plates were incubated under agitation at 37° C. for 2 h, covered by plastic foil (Resealable tape, PerkinElmer, Waltham, Mass., USA). […] Accumulation of tritium was counted in a liquid scintillation counter (Wallac MicroBeta® TriLux, 1450 LSC & Luminescence Counter, PerkinElmer, Waltham, Mass., USA) immediately. Radioactivity was plotted against the increasing tritium-labeled compound or cold compound concentrations. […]

T2 sequence (P10636 1-412 isoform P10636-7): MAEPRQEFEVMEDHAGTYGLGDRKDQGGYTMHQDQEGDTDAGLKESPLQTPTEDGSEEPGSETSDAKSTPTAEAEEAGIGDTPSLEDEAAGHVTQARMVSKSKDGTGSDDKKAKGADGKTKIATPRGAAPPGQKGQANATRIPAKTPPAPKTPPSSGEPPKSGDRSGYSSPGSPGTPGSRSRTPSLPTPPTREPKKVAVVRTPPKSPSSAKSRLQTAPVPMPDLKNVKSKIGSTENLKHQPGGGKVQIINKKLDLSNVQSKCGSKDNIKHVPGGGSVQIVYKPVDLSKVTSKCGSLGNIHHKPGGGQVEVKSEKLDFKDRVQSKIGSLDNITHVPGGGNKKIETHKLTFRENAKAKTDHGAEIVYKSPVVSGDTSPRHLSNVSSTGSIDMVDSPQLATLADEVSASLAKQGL

In the case of `CN(C)c1ccc(-c2cc(-c3ccnc(Br)c3)[nH]n2)cc1` [Compound 1, 4-[3-(4-dimethylamino-phenyl)-1H-pyrazol-5-yl]-2-bromopyridine], the Kd [1] is reported as 0.6 nM, the “Washout from the brain” value [2] is reported as “rapid washout from the brain” and the half-life [2] is reported as 12 min. The Kd (aggregated tau46) was greater than 5 nM.
With `CNc1ccc(-c2cc(-c3ccnc(Br)c3)[nH]n2)cc1` [Compound 2, 4-[5-(2-bromopyridin-4-yl)-1H-pyrazol-3-yl]-N-methylaniline] the Kd [1] was 0.2 nM, the “Washout from the brain” value [2] was “rapid washout from the brain” and the half-life [2] was 9 min. It also gave a Kd (aggregated tau46) greater than 15 nM.
